The source of these data is patent US6617439B1, “C8-substituted purine nucleotide analogs” (Bar-Ilan University, priority 2000, dated 2003).

One test concerns P2X-purinoceptor. Briefly: P2X-receptor assay, endothelium-denuded mesenteric bed. The arrangement: species or system guinea pig. To be noted: for P2X-R effect: variation of perfusion pressure: bolus 0.1-1000 pmol, denuded mesenteric bed precontracted with noradrenaline. How it is done: (§1) Surgical Procedures. Dunkin-Hartley guinea pigs (300-350 g) of either sex were sacrificed by cerival dislocation according to the Canadian Council on Aminal Care. The guinea pig mesentery was prepared as described by Berthiaume et al (63). […] To isolate the mesenteric bed from the intestine, the mesentery was perfused (2 ml/min, for 5 min) via the mesenteric artery with a Krebs solution containing heparin (100 U/ml). The mesentery was then separated by cutting close to the intestine. A resting period of 60 min was then allowed during which the guinea pig mesenteric bed was perfused (2 ml/min) with a warmed (37° C.) and gassed Krebs solution (95% O2 and 5% CO2) containing indomethacin (5 μM), as described earlier. In all the assays, perfusion pressure was increased to obtain a flow rate of 6 ml min^−1. Response of mesenteric bed, precontracted with noradrenaline (200 μM) in 0.9% saline solution, to the different drugs, was measured with a pressure transducer (Statham, model P-23AC) and recorded on a Grass physiograph (model 79D).
P2X-receptor assays. Guinea pig mesenteric bed was denuded from its endothelium layer by using 20 mM of CHAPS in PBS (63). Briefly, the CHAPS solution was infused for 45 sec, followed by a resting period of 30 min. Finally a second 45 sec infusion of 20 mM CHAPS was carried out. Blood vessels were then precontracted as earlier described. The efficiency of the endothelium removal technique was assessed by an intra-arterial bolus injection of 100 pmol of NK-1 in PBS. Reactivity of the media layer was confirmed by bolus injection of 3 nmol of NaNP (sodium nitroprussiate) in PBS. […] Variation of perfusion pressure were measured. Between each injection of 8-BuS-ATP a resting period was allowed to allow the return of pressure to baseline (i.e. precontracted pressure).

Another test deals with P2Y-purinoceptor. Briefly: P2Y-receptor assay, intact mesenteric bed, ATP-induced vasodilation. To be noted: 7 μM infusion, ATP 0.1-10000 pmol. The arrangement: species or system guinea pig. The protocol:
as §1
P2Y-receptor assays. Intact mesenteric bed vessels were precontracted with noradrenaline (200 μM). […] A resting period between each ATP injection was allowed to return to baseline, as described above. Blood vessel reactivity was assessed by a bolus injection of 3 nmol of NaNP. Response of the endothelium layer was confirmed by injection of NK-1 (100 pmol).

A further test has as its system P2Y1 receptor. To be noted: cited from earlier work.
The next test deals with rat astrocytes. The conditions noted are these: cited from earlier work.
The target in test [1] is T1, NTPDase (Bos taurus, UniProt O18956).
T1 sequence (O18956 1-513): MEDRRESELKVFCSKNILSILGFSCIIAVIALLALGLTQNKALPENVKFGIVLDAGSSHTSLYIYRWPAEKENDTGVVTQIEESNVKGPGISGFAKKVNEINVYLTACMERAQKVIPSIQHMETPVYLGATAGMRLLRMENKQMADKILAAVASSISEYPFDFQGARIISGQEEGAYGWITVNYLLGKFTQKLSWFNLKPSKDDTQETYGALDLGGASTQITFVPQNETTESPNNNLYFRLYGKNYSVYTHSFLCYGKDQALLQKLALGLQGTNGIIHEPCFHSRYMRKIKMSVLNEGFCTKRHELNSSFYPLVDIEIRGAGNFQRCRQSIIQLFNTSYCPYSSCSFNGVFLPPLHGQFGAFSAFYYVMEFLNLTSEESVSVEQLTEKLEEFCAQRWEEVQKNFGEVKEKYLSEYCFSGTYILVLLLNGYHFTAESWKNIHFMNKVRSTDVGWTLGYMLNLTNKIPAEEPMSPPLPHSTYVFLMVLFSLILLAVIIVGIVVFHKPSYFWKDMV
Briefly: Resistance to hydrolysis by NTPDase (malachite green phosphate release). The arrangement: To reduce potential artifacts resulting from the solubilisation of NTPDase by detergents, a particulate fraction (prepared as described above) was used; from tissue; host or cells: bovine spleen particulate fraction. Type of test: biochemical, bovine. To be noted: 100 μM analog, 37° C., 7 min, 1.9 μg protein. The protocol:
Isolation of particulate fractions. Experiments were carried out with a particulate fraction obtained from bovine spleen according to the method of Sévigny et al. (37). Briefly, bovine spleens were cut in small pieces and homogenized (15-20%) with a Polytron in Tris-saline buffer supplemented with SBTI and PMSF as protease inhibitors. After filtration with cheesecloth and centrifugation at 600 g the supernatant is centrifuged at 22,000 g for 90 min, and the resulting pellet is suspended in bicarbonate buffer and loaded on a sucrose cushion (40%) and centrifuged for two hours at 100,000 g. The fraction floating on the cushion is harvested in five volumes of bicarbonate buffer. The pellet is suspended in Tris buffer/glycerol 7.5% and kept at −20° C.
(§2) NTPDase assays. Enzyme activity was routinely measured by the release of inorganic phosphorus with the malachite green colorimetric assay (61). Resistance to hydrolysis was measured at 37° C. in 1 ml of the following incubation medium: 8 mM CaCl2, 5 mM tetramisole, 50 mM Tris base, 50 mM imidazole, buffered at pH 7.6, and 100 μM of either ATP or its analogs. […] In both cases the reaction was started by the addition of 1.9 μg of the enzyme preparation and stopped after 7 min with 250 μL of the malachite green reagent. […] Reactions were performed in the same incubation buffer, as previously described and were started by the addition of non-saturating ATP concentrations. Protein concentration was determined with the Bradford microplate assay using bovine serum albumin as a standard of reference (62).
To reduce potential artifacts resulting from the solubilisation of NTPDase by detergents, a particulate fraction (prepared as described above) was used. […] Also, possible alkaline phosphatase activity was inhibited by tetramisole added to the assays.

Test [2] deals with T1, NTPDase. Briefly: NTPDase inhibition, ATP as substrate (Dixon plots). Type of test: biochemical, bovine. How it is done:
as §2, with “Isolation of particulate fractions. […] Briefly, bovine spleens were cut in small pieces and homogenized (15-20%) with a Polytron in Tris-saline buffer supplemented with SBTI and PMSF as protease inhibitors. After filtration with cheesecloth and centrifugation at 600 g the supernatant is centrifuged at 22,000 g for 90 min, and the resulting pellet is suspended in bicarbonate buffer and loaded on a sucrose cushion (40%) and centrifuged for two hours at 100,000 g. The fraction floating on the cushion is harvested in five volumes of bicarbonate buffer. […] NTPDase” for “NTPDase”, “(62). […]” for “(62).”

“Also recorded” adds a separate entry of the source.

On to `CCCCSc1nc2c(N)ncnc2n1C1OC(COP(=O)(O)OP(=O)(O)OP(=O)(O)O)C(O)C1O` (centres unmarked) [6e, 8-BuS-ATP], for which the results for the “P2X-R effect: variation of perfusion pressure” value with P2X-purinoceptor and in the test on P2X-purinoceptor (listed as 8-BuS-ATP) were “does not interact” and “not able to initiate any P2X-R effect; also recorded: No variations of perfusion pressure”, respectively. The results for the “effect on vasodilatory response to ATP (P2Y-R)” value in the test on P2Y-purinoceptor and in the test with P2Y-purinoceptor (listed as 8-BuS-ATP) were “does not interact” and “unmodified; also recorded: No significant difference”, respectively. Further, the “agonism at P2Y1 receptor” value in the test on P2Y1 receptor is “poor agonist”. In addition, the “effect on [Ca2+]i level” value in the test with rat astrocytes is reported as “no effect”.
As to `Nc1ncnc2c1nc(Br)n2[C@@H]1O[C@H](COP(=O)(O)OP(=O)(O)OP(=O)(O)O)[C@@H](O)[C@H]1O` [8-Br-ATP, reference compound], the “hydrolysis by NTPDase / resistance to hydrolysis” value at NTPDase [1] is reported as “a level of hydrolysis”.
Same read-out and setting: for `CCCCOc1nc2c(N)ncnc2n1[C@@H]1O[C@H](COP(=O)(O)OP(=O)(O)OP(=O)(O)O)[C@@H](O)[C@H]1O` [compound 8, 8-BuO-ATP] the value was “a level of hydrolysis”.
In the case of `CCCCNc1nc2c(N)ncnc2n1[C@@H]1O[C@H](COP(=O)(O)OP(=O)(O)OP(=O)(O)O)[C@@H](O)[C@H]1O` [compound 7, 8-BuNH-ATP], the “hydrolysis by NTPDase / resistance to hydrolysis” value on NTPDase [1] was “a level of hydrolysis”.
In the case of `Nc1ncnc2c1nc(SC1CCCCCC1)n2C1OC(COP(=O)(O)OP(=O)(O)OP(=O)(O)O)C(O)C1O` (centres unmarked) [6a, 8-(Thiocycloheptyl)-adenosine 5′-triphosphate], the “potency / affinity as NTPDase inhibitor, in words” value on NTPDase [2] is “good inhibitors”. The “type of NTPDase inhibition” value at NTPDase [2] (Lineweaver-Burk / Dixon representation) was “mixed type inhibitors; also recorded: mixed types of inhibition”. Further, the “hydrolysis by NTPDase / resistance to hydrolysis” value on NTPDase [1] is on record as “more resistant to hydrolysis; also recorded: resistant to hydrolysis”.
In the case of “[Star^9,Met(O2)^11]SP [NK-1, reference compound]”, the “vascular response (vasodilation) in denuded mesentery” value in the test on P2X-purinoceptor (100 pmol, vessels precontracted with 200 μM noradrenaline) was “significant response”.
In the case of `CCSc1nc2c(N)ncnc2n1[C@@H]1O[C@H](COP(=O)(O)OP(=O)(O)OP(=O)(O)O)[C@@H](O)[C@H]1O` [6c, 8-(Thioethyl)-adenosine 5′-triphosphate], the “hydrolysis by NTPDase / resistance to hydrolysis” value at NTPDase [1] is given as “a level of hydrolysis”.
